From patent US8318637B2, “Herbicide/azole combination” (Bayer Cropscience AG, priority 2007, dated 2012)

Tests used:
Format in all cases: in vivo
Wheat = assay: Greenhouse trial, post-emergence crop damage, visual scoring; conditions: approx. 4 weeks after application
Experimental: (§1) The seeds of typical harmful plants and of typical cereal plants were sown, allowed to emerge and grown under greenhouse conditions. Treatment with the compositions according to the invention was carried out after emergence of the harmful plants generally at the 2- to 4-leaf stage at various dosages using a water application rate of 300 l/ha (converted).
(§2) After the treatment (approx. 4 weeks after application), the herbidical activity of the active compounds or active compound mixtures was scored visually by comparing the treated plots with untreated control plots. Damage and development of all above-ground parts of the plants was recorded. Scoring was done on a percentage scale (100% activity=all plants dead; 50% activity=50% of the plants and green plant parts dead; 0% activity=no discernible activity=like control plot).
(§3) The results are listed in the tables below, where the activity measured for the independent use of the active compounds A) and B) is stated in brackets and g of AS/ha means gram of active substance per hectare.

Alopecurus myosuroidis = assay: Greenhouse trial, post-emergence herbicidal action, visual scoring; conditions: 672 h, approx. 4 weeks after application
Experimental: as §1, §2, §3

Lolium multiflorum = assay: as above; conditions: 672 h, approx. 4 weeks after application
Experimental: as §1, §2, §3

Fc1ccc([C@]2(Cn3cncn3)O[C@H]2c2ccccc2Cl)cc1 (racemic) [epoxiconazole]
0%: Wheat % damage (Wheat; 125 g of AS/ha) | Wheat % damage (Wheat; 250 g of AS/ha) | inhibition at 125 g/ha (Alopecurus myosuroidis; 125 g of AS/ha) | inhibition at 250 g/ha (Alopecurus myosuroidis; 250 g of AS/ha) | inhibition at 125 g/ha (Lolium multiflorum; 125 g of AS/ha) | inhibition at 250 g/ha (Lolium multiflorum; 250 g of AS/ha)
